We go through 1 compound from patent publication US5091191A (Yoshitomi Pharmaceutical Industries, Ltd., priority 1988, dated 1992).

Data set [1] in a line: Behaviour of finely-powdered Compound in weakly acid solution. It counts as physicochemical.
A short description of data set [2]: Solubility of the Compound at different pH values (FIG. 1). Format: physicochemical. The conditions noted are these: weakly acid to neutral, about pH 3 to about pH 7. An excerpt: FIG. 1 is a graph showing the solubility of the Compound at different ph valves. FIGS. 2, 3 and 4 are the graphs showing the dissolution test results of the Compound and the tablets of Reference Example 1, the fine granules of Example 1 and the tablets of Example 2, respectively.

Turning to `Cc1ccc(-n2ccnc2)cc1C(O)c1c(C)cc(C(=O)[O-])cc1C.[Na+]` (stereo not drawn), in data set [1] (added to a weakly acid solution), the “conversion to corresponding free acid” value was “the corresponding free acid was produced through chemical reaction”. For the same compound, the “dissolution-improving effect of finely-powdering” value in data set [1] (weakly acid solution) is listed as “there was not found any dissolution-improving effect”. Also, the solubility result in data set [2] is recorded as “lowered under weakly acid to neutral conditions”.
